In patent publication US12077555B2, “STAT degraders and uses thereof” (Kymera Therapeutics, Inc., priority 2019, dated 2024):

Molecular target: STAT3 (Homo sapiens, UniProt P40763)
Test: STAT3 HiBiT degradation assay in transfected A549 cells
Assay type: cell-based
Set-up: expressed in transfected cells; host or cells: A549
Settings: A549, 24 h; read-out: STAT3 HiBiT A549 degradation 24 h: Average external-Abs DC50
In short: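 Transfected A549 cells (~2000/well) plated 24 h, then treated 24 h at 37 °C, 5% CO2 with a 3-fold, 10-point compound dilution. HiBiT lytic luminescence read after 10 min at room temperature; remaining STAT3 normalized to negative and positive controls, four-parameter fit. DC50 binned A <0.01, B 0.01–0.1, C 0.1–1.0, D >1.0 µM.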

STAT3, sequence (P40763 whole entry): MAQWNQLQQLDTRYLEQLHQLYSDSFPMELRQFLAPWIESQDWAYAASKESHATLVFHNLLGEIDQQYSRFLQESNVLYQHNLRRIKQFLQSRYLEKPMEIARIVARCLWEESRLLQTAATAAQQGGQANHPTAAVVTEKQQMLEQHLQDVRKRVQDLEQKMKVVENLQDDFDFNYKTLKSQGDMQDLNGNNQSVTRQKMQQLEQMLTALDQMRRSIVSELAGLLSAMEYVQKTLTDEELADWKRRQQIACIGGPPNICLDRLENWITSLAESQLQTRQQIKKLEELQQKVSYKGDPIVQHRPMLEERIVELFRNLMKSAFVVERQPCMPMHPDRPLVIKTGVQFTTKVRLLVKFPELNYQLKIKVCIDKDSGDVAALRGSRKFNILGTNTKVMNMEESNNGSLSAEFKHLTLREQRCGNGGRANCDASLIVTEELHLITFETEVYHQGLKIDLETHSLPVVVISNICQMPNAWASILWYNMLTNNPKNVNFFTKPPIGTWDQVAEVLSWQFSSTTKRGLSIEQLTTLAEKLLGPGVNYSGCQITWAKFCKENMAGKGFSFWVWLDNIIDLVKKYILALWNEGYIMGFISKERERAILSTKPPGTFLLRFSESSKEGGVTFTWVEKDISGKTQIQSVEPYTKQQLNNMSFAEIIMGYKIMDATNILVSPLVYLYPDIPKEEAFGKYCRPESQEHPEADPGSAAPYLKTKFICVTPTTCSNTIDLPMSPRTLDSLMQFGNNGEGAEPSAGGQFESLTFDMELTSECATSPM

SMILES	DC50 [nM]
Cn1c(=O)n(C2CCC(=O)NC2=O)c2ccc(C3CC(CCCC(=O)N4CC[C@H]5CC[C@@H](C(=O)N[C@@H](CCC(N)=O)C(=O)NC(c6ccccc6)c6ccccc6)N5C(=O)[C@@H](NC(=O)c5cc6cc(C(=O)P(=O)(O)O)ccc6[nH]5)C4)C3)cc21 (stereo partly drawn) [Compound I-228, 2-[[(5S,8S,10aR)-8-[[(1S)-3-carbamoyl-1-(diphenylmethylcarbamoyl)propyl]carbamoyl]-3-(4-[3-[1-(2,6-dioxopiperidin-3-yl)-3-methyl-2-oxo-1,3-benzodiazol-5-yl]cyclobutyl]butanoyl)-6-oxo-octahydropyrrolo[1,2-a][1,5]diazocin-5-yl]carbamoyl]-1H-indole-5-carbonylphosphonic acid]	100 to 1000
Cn1c(=O)n(C2CCC(=O)NC2=O)c2ccc(CCCCCCc3cc4c5c(c3)C[C@@H](C(=O)N[C@@H](CCC(N)=O)C(=O)NC(c3ccccc3)c3ccccc3)N5C(=O)[C@@H](NC(=O)c3cc5cc(C(=O)P(=O)(O)O)ccc5[nH]3)CC4)cc21 (stereo partly drawn) [Compound I-229, 2-[[(2S,11S)-2-[[(1S)-3-carbamoyl-1-(diphenylmethylcarbamoyl)propyl]carbamoyl]-6-[6-[1-(2,6-dioxopiperidin-3-yl)-3-methyl-2-oxo-1,3-benzodiazol-5-yl]hexyl]-12-oxo-1-azatricyclo[6.4.1.0 [4,13]]-trideca-4(13),5,7-trien-11-yl]carbamoyl]-1H-indole-5-carbonylphosphonic acid]	10 to 100
Cn1c(=O)n(C2CCC(=O)NC2=O)c2ccc(CC3CCC(CC(=O)N4CC[C@H]5CC[C@@H](C(=O)N[C@H](CCC(N)=O)C(=O)NCc6ccc(S(C)(=O)=O)cc6)N5C(=O)[C@@H](NC(=O)c5cc6cc(C(=O)P(=O)(O)O)ccc6[nH]5)C4)CC3)cc21 (stereo partly drawn) [Compound I-230, 2-[[(5S,8S,10aR)-8-[[(1R)-3-carbamoyl-1-[[(4-methanesulfonylphenyl)methyl]carbamoyl]propyl]carbamoyl]-6-oxo-3-[2-[(1S,4S)-4-[[1-(2,6-dioxopiperidin-3-yl)-3-methyl-2-oxo-1,3-benzodiazol-5-yl]methyl]cyclohexyl]acetyl]-octahydropyrrolo[1,2-a][1,5]diazocin-5-yl]carbamoyl]-1H-indole-5-carbonylphosphonic acid]	> 1000
CC(=O)N1CC[C@H]2CC[C@@H](C(=O)N[C@@H](CCC(N)=O)COc3cccc(CCCC(=O)N[C@H](C(=O)N4C[C@H](O)C[C@H]4C(=O)N[C@@H](C)c4ccc(-c5scnc5C)cc4)C(C)(C)C)c3F)N2C(=O)[C@@H](NC(=O)c2cc3cc(C(=O)P(=O)(O)O)ccc3[nH]2)C1 [Compound I-231, diammonium 2-[[(5S,8S,10aR)-3-acetyl-8-[[(2S)-4-carbamoyl-1-[2-fluoro-3-(3[[(2S)-1-[(2S,4R)-4-hydroxy-2-[[(1S)-1-[4-(4-methyl-1,3-thiazo1-5-yl)phenyl]ethyl]carbamoyl]pyrrolidin-1-yl]-3,3-dimethyl-1-oxobutan-2-yl]carbamoyl]propyl)phenoxy]butan-2-yl]carbamoyl]-6-oxo-octahydropyrrolo[1,2-a][1,5]diazocin-5-yl]carbamoyl]-1H-indole-5-carbonylphosphonate]	10 to 100
CC(C)c1ccc(CNC(=O)[C@H](CCC(N)=O)NC(=O)[C@@H]2Cc3cc(CCCCCCc4ccc5c(c4)n(C)c(=O)n5C4CCC(=O)NC4=O)cc4c3N2C(=O)[C@@H](NC(=O)c2cc3cc(C(=O)P(=O)(O)O)ccc3[nH]2)CC4)cc1 (stereo partly drawn) [Compound I-232, 2-[[(2S,11S)-2-[[(1S)-3-carbamoyl-1-[[(4-isopropylphenyl)methyl]carbamoyl]propyl]carbamoyl]-6-[6-[1-(2,6-dioxopiperidin-3-yl)-3-methyl-2-oxo-1,3-benzodiazol-5-yl]hexyl]-12-oxo-1-azatricyclo[6.4.1.0^[4,13]]trideca-4(13),5,7-trien-11-yl]carbamoyl]-1H-indole-5-carbonylphosphonic acid]	10 to 100
